The values that follow come from patent publication US20210283163A1, “COMPOSITIONS AND METHODS FOR THE TREATMENT OF ACUTE AND CHRONIC PRURITIS” (Duke University, priority 2018, published 2021).

The target of one data set is T1, mTRPA1 (Mus musculus, UniProt Q8BLA8).
T1 construct: endogenous in cells; host or cells: dissociated mouse DRG neurons in primary culture
Briefly: Live cell labeling with Cy3-labeled oligos in cultured DRG neurons. Particulars: 10 μM Cy3-labeled oligo, 15 min. The data set is classed as binding. On the procedure:
Live Cell Labeling and Immunocytochemistry in Mouse DRG Neurons. Disassociated DRG neurons were plated on Poly-D-Lysine coated coverslips and cultured in Neurobasal medium supplemented with B27 for 24 hr. Cells were incubated with 10 μM Cy3-labeled miR-711 or miR-711 (m6) in extracellular cell solution for 15 min at 37° C. with 5% CO2. Then the coverslips were washed and incubated with TRPA1 primary antibody (Alomone lab, rabbit, 1:100) at 4° C. for 1 hr. The cells on coverslips were incubated with secondary antibody conjugated to FITC (1:100; Jackson ImmunoResearch, West Grove, Pa.) and examined under a Leica SP5 inverted confocal microscope.

The next data set has as its target T2, TRPV3 (Mus musculus, UniProt Q8K424).
T2 construct: expressed in transfected cells; host or cells: CHO cells (ATCC CRL-9096), plasmid pcDNA3.1-mTrpv3, a gift from Korea University
T2 sequence (Q8K424 1-791): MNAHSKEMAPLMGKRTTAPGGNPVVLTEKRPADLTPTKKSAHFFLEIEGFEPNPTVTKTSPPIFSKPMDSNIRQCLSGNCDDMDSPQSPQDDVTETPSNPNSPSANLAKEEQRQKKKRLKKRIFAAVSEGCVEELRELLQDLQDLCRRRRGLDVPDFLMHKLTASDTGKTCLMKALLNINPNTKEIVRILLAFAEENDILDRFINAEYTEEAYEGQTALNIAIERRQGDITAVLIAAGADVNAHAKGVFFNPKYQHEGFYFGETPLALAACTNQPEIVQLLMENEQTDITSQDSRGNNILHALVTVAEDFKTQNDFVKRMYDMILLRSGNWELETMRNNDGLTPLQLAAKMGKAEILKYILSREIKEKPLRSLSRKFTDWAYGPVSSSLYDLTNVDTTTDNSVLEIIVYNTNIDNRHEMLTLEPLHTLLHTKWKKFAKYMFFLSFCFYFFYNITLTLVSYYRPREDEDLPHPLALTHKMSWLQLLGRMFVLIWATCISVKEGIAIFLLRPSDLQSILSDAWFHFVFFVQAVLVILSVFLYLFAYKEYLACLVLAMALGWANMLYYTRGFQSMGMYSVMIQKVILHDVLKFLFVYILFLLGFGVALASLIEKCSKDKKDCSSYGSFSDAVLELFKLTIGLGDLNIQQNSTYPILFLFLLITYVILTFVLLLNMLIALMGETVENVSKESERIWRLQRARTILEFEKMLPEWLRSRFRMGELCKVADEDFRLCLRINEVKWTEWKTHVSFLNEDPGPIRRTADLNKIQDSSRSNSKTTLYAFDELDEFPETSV
Briefly: Whole-cell patch clamp in CHO cells transfected with mouse Trpv3 cDNA. Particulars: miR-711 10 μM; carvacrol 300 μM. The data set is classed as cell-based. The procedure:
Constructs. The cDNAs of mouse pcDNA3.1-Trpa1, pcDNA3.1-Trpv1, pcDNA3.1-Trpv2, pcDNA3.1-Trpv3, and pcDNA3.1-Trpv4 were kindly provided Dr. Sun Work Hwang from Korea University. Mouse Trpa1 cDNA was subcloned into pCGN-HA backbone (Addgene) using In-Fusion HD Cloning Kit (Clontech Laboratories, CA). Q5 Site-Directed Mutagenesis Kit was used to generate mTrpa1 mutant (M1-M13) based on pCGN-mTrpa1.
Cell Culture and Transfection. CD4^+ Myla cell line was cultured in RPMI 1640 media (GIBCO), supplemented with 2 mM Glutamine (GIBCO), 100 U/mL IL-2 (Sigma), 100 U/mL IL-4 (Sigma), and 10% human AB serum (Sigma). HuT 102 cell line was cultured in RPMI 1640 supplemented with pyruvate, HEPES, and 10% (v/v) fetal bovine serum (HyClone). HEK293-hTRPA1 stable cell line was cultured in MEM (GIBCO) containing 2 mM Glutamine, 4 μg/mL Blasticidin, 10% FBS (v/v). B16 and CHO cells were cultured in high glucose (4.5 g/L) Dulbecco's Modified Eagle's Medium (GIBCO) containing 10% (v/v) fetal bovine serum (GIBCO). Culture media were supplemented with 50 units/mL of penicillin and 50 μg/mL streptomycin, and cultures were maintained with 5% CO2 in 37° C. incubator. Transfection (2 μg cDNA) was performed with Lipofectamine™ 2000 Reagent (Invitrogen) at 80% confluency and the transfected cells were cultured in the same media for 48 hr before electrophysiological and biochemical studies. […]

T1 sequence (Q8BLA8 whole entry): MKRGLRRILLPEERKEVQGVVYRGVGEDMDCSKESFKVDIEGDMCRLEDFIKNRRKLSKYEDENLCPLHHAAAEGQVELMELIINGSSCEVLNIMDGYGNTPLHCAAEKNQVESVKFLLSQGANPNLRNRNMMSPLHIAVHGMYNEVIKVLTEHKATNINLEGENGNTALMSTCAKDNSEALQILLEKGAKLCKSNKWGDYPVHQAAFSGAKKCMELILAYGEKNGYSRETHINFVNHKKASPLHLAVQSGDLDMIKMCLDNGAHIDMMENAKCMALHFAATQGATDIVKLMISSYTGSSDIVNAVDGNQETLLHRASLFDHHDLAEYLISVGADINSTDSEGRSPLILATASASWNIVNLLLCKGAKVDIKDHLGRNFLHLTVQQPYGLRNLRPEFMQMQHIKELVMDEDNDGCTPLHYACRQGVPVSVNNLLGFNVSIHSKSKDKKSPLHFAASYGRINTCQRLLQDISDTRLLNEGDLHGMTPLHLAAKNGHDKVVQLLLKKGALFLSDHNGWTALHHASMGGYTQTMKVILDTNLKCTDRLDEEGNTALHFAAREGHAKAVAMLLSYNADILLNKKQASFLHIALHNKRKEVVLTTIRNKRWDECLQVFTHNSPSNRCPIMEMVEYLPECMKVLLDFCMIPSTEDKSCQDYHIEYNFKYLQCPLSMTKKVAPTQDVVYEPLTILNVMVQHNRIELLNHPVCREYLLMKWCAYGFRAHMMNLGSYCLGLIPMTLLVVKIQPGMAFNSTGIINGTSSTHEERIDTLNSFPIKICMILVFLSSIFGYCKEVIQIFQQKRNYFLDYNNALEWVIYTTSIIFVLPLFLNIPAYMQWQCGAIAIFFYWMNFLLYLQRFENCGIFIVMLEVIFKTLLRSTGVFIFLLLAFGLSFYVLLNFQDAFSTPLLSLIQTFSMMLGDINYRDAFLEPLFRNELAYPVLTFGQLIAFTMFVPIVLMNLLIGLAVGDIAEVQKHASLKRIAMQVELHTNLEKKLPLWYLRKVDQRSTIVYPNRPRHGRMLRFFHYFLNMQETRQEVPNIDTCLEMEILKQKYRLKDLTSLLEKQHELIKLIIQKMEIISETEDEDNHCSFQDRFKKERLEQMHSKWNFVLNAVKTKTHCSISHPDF

For the compound “Cy3-labeled miR-711: mmu-miR-711-cy3: gggacccggggagagauguaag-cy3 (SEQ ID NO: 20) (GGGACCCGGGGAGAGAUGUAAG; Cy3 label at 3' end, RNA chemistry otherwise not given here, further chemistry not given here)”, the “binding to TRPA1 on the cell surface of DRG neurons” value in the data set with mTRPA1 was “binds to TRPA1 on the cell surface”.

As to `Cc1ccc(C(C)C)cc1O` [carvacrol], the inward currents entry on TRPV3 is reported as “inward currents induced”.
